Experimental data: article PMC13050480, “Preclinical Development of GT-14, a Novel Inhibitor of Gαi2 Protein: Comprehensive Evaluation of Physicochemical, Metabolic Characteristics and Tissue Distribution” (The AAPS journal, 2025)
“Also recorded” adds a separate entry of the source. Where two headings read alike, the source gives them in different places.

Tests used:
[1] = Ionization constant (pKa) determination, Pion Sirius T3, UV-metric and Fast UV titration; type: physicochemical; settings: for pKa: 0.15 M KCl solution, 0.15 M KCl, 25 ± 1°C
Protocol: The Ionization constant of GT-14 was determined using the Pion Sirius T3 apparatus (Sirius Analytical Instruments Ltd., East Sussex, UK). It has an Ag/AgCl double junction reference pH electrode, a Sirius ±D-PAS spectrometer and a turbidity sensing device. The titration experiments were conducted in 0.15 M KCl solution under an argon atmosphere at a temperature of 25 ± 1°C. All tests were performed using standardized 0.5 M KOH and 0.5 M HCl as titration reagents. pKa value was measured using UV-metric and Fast UV titration methods.

[2] = Bi-directional transport study in Caco-2 cell culture model; type: in vitro ADME, human; settings: human, donor 10 μM
Protocol: (§1) Caco-2 cells were cultivated as described previously with slight modification ([12]). Briefly, a cell monolayer was prepared by seeding 400,000 cells per insert (Nunc, surface area 4.2 cm^2, 3 μm pore size). Cells were maintained at 37°C under 90% humidity and 5% CO2. Monolayers were used between 19 and 22 days after seeding. The integrity of each monolayer was checked by measuring the transepithelial electrical resistance (Millicell ERS®) before the experiment. The normal TEER values obtained were above 400 Ω·cm^2. Cell monolayers with TEER values less than 400 Ω·cm^2 were not used. Hank’s balanced salt solution (HBSS) (9.8 g/L) was supplemented with NaHCO3 (0.37 g/L), HEPES (5.96 g/L), and glucose (3.5 g/L) for all experiments, after adjusting the pH to the desired value.
(§2) For transport studies, 2.5 mL of GT-14 testing solution (10 μM) in HBSS (pH 7.4) was added to the apical side (A to B transport) or the basolateral side (B to A transport). Five donor samples (200 μL) and five receiver samples (200 μL) were taken at 0, 1, 2, 3, and 4 h followed by the addition of 200 μL of GT-14 test solution to the donor or 200 μL of blank HBSS buffer to the receiver side. Then, 100 μl of an ACN containing internal standard was added to the samples right after sampling. The TEER was measured at the end of the study, and the cell layer was washed carefully using cold blank HBSS 3 times, then cut and sonicated for 30 min in 1.0 mL of blank HBSS for intracellular GT-14 concentration measurement. All samples were centrifuged at 15,000 rpm for 15 min at 4°C for UPLC analysis.
(§3) The apparent permeability coefficient and efflux ratio were obtained according to the following equations: […]

[3] = tested on: Caco-2 cell monolayers; assay: as above; type: in vitro ADME, human
Protocol: as §1, §2, §3

[4] = tested on: liver microsomes; assay: Phase II glucuronidation reaction with liver microsomes; type: in vitro ADME; settings: UDPGA, 2 h
Protocol: The in vitro phase II glucuronidation reaction was carried out using a published protocol that involves the use of uridine diphosphate glucuronic acid (UDPGA) as cofactor, saccharolactone as beta-glucuronidase inhibitor to drive the forward reaction to release the metabolite, potassium phosphate buffer (KPI) to mimic physiological conditions, and alamethicin as a surfactant for the response. The components were pipetted into microcentrifuge tubes in the following order: GT-14 testing solution in KPI (pH 7.4), solution B (25 mM saccharolactone and 5 mM magnesium chloride), solution A (25 mM uridine diphosphate glucuronic acid and potassium chloride), microsome. Samples (100 μL) were taken at 2 h. The reaction was terminated with 50 μL of solution containing 0.6% formic acid in acetonitrile + internal standard (rutin) at each time point and vortexed for 1 min. The samples were then centrifuged at 14,000 rpm for 15 min. The supernatant (100 μL) was then collected and loaded into the UPLC for analysis.

[5] = Tissue distribution and urinary excretion after IV dose in rats; type: in vivo, Sprague Dawley rats
Protocol: Each tissue sample was weighed and homogenized in a clean scintillation vial with 0.9% saline (1:1, w/v) using the VWR 200 Homogenizer to make tissue homogenates. Homogenization was carried out on ice at a speed of 5000 rpm for all tissues except the prostate and kidney (10,000 rpm). A five-point calibration curve was prepared for the different tissues in the range of 0.39–25 ng/g. One hundred (100) μL of tissue homogenate samples were mixed with 10 μL of Griseofulvin (1.5 μg/mL, IS). The samples were vortexed for 30 seconds which was followed by protein precipitation with methanol (300 μL), to extract GT-14. The samples were again vortexed for 30 seconds, and then shaken on an automatic shaker for 5 minutes, followed by centrifugation at 14000 rpm for 20 minutes at 4°C. The supernatant was transferred to a sample vial, and a 5 μL aliquot was injected for LC-MS/MS analysis.
Healthy male Sprague Dawley rats (250–300 g) were used to evaluate the plasma pharmacokinetics and tissue distribution of GT-14, with approved animal protocol from the Institutional Animal Care and Use Committee (IACUC) at Texas Southern University. The jugular vein of rats was cannulated in-house the day before intravenous dosing and blood sample collection. GT-14 was administered intravenously as a co-solvent formulation via the jugular vein cannula at a dose of 5 mg/kg. Serial blood samples (100 μL) were collected up to 24 h post-dose. The blood samples were centrifuged at 3000 rpm for 10 min at 4°C, and plasma was collected and stored at −80°C till analysis. Urine samples were also collected at intervals of 0–7 and 7–24 hrs. using metabolic cages and stored at −20°C until analysis. At 24 hr, animals were sacrificed and organs such as prostate, liver, lungs, spleen, brain, kidneys, and heart were collected, following whole body perfusion (transcardiac perfusion) with normal saline to reduce residual blood in tissues. Plasma and tissue homogenate samples were processed (described in section “Analytical Assay”) and analyzed by LC-MS/MS. Tissue concentrations were calculated using the following formula: Tissueconcentrationng/g=CHTS×VHTS/WTS where, CHTS is the concentration (ng/mL) of GT-14 in the homogenized tissue sample; VHTS is the volume of homogenized tissue sample (mL) and WTS is the weight of tissue sample (g).

[6] = rat, IV 5 mg/kg, 24 hr post dose, 5 mg/kg

- pKa ([1]; read-out: pKa (printed as acidic pKa, nitrogen of the imine group)): 3.46 ± 0.014
- pKa ([1]; read-out: pKa (printed as basic pKa, phenolic group)): 10.5 ± 0.4
- isoelectric point (pI) ([1]; pI=(pKa acid+pKa base)/2): approximately 7.0
- efflux ratio at 4 h, 10 μM ([2]; Caco-2, pH 7.4): 1.8
- Papp A→B at 4 h, 10 μM ([2]; Caco-2, HBSS pH 7.4, n=3, read-out: apical to basolateral permeability (Pa-b)): 13 ×10⁻⁶ cm/s
- Papp B→A at 4 h, 10 μM ([2]; Caco-2, HBSS pH 7.4, n=3, read-out: basolateral to apical permeability (Pb-a)): 24.2 ×10⁻⁶ cm/s
- BCS class ([3]; based on low aqueous solubility and high permeability): BCS class II
- predicted absorption in the GI tract in humans ([3]; predicted from Caco-2 permeability): > 75%
- Phase II glucuronidation (UPLC peaks) [4]: no additional peaks were observed
- drug cleared from plasma ([5]; 24-h time point post single dose injection): ~99%
- concentration at 24 h ([5]; male, Sprague Dawley, heart, rat, IV 5 mg/kg, 24 hr post dose, read-out: Tissue concentration, heart): 0.13 ± 0.06 ng/g
- concentration at 24 h ([5]; male, Sprague Dawley, kidney, rat, IV 5 mg/kg, 24 hr post dose, read-out: Tissue concentration, kidney): 0.52 ± 0.61 ng/g
- concentration at 24 h ([5]; male, Sprague Dawley, liver, rat, IV 5 mg/kg, 24 hr post dose, read-out: Tissue concentration, liver): 0.13 ± 0.01 ng/g
- concentration at 24 h ([5]; male, Sprague Dawley, lung, rat, IV 5 mg/kg, 24 hr post dose, read-out: Tissue concentration, lung): 0.55 ± 0.15 ng/g
- concentration at 24 h ([5]; male, Sprague Dawley, plasma, rat, IV 5 mg/kg, 24 hr post dose, read-out: Plasma concentration): 9.62 ± 2.82 ng/mL
- concentration at 24 h ([5]; male, Sprague Dawley, prostate, rat, IV 5 mg/kg, 24 hr post dose, read-out: Tissue concentration, prostate): 2.19 ± 1.26 ng/g
- Kp at 24 h ([5]; male, Sprague Dawley, rat, intravenous, 5 mg/kg, all tissues, 24 hr post dose, read-out: tissue-to-plasma ratios): < 1
- GT-14 in urine ([5]; rat, IV 5 mg/kg, urine 0–7 and 7–24 hrs): not detected
SMILES: C/C(=N\c1ccc(O)cc1)c1cc2ccccc2n1C [GT-14, (E)-4-((1-(1-methyl-1H-indol-2-yl)ethylidene)amino)phenol]
- GT-14 in brain [5, 6]: not detected; also recorded: detected in all sampled tissues except the brain
- Tissue distribution (rank order, accumulation) [5, 6]: highest concentration of GT-14 in the prostate, followed by the kidneys, lungs, heart, and liver; also recorded: High accumulation in prostate
